Laboratory results reported in patent US20230399341A1, “7-PHENYL SUBSTITUTED 2-AMINOQUINAZOLINE INHIBITORS OF HPK1” (MERCK SHARP & DOHME LLC, priority 2020, published 2023).

Molecular target: T1, Human HPK1, catalytic domain (Homo sapiens, UniProt Q92918)
T1 sequence (Q92918 1-346): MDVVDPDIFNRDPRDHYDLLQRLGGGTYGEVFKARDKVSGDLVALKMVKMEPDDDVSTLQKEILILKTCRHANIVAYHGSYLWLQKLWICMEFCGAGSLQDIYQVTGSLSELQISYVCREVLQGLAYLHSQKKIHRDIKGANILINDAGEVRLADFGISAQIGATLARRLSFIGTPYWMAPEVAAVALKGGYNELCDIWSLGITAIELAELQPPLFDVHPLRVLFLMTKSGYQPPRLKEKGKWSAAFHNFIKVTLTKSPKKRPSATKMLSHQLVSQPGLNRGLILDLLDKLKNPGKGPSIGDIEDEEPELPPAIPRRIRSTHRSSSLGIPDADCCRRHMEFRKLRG
Assay: HPK1-SLP76 TR-FRET Assay
Format: biochemical
Conditions: 75 pM HPK1, ATP 10 uM, SLP76 10 nM, 30 min pre-incubation, 60 min reaction

IC50 [nM] | SMILES
0.669 | Cc1ncccc1Nc1ncc2c(N)c(F)c(-c3cnc4c(c3C)NCCO4)cc2n1 [Compound 2-32, 6-fluoro-7-(8-methyl-2,3-dihydro-1H-pyrido[2,3-b][1,4]oxazin-7-yl)-N~2~- (2-methylpyridin-3-yl)quinazoline-2,5-diamine]
0.186 | Cc1c(-c2cc3nc(Nc4cccc(S(=O)(=O)NC(C)(C)C)c4)ncc3c(N)c2F)cnc2c1NCCO2 [Compound 2-33, 3-{[5-amino-6-fluoro-7-(8-methyl-2,3-dihydro-1H-pyrido[2,3-b][1,4]oxazin-7-yl)quinazolin-2-yl]amino}-N-tert-butylbenzene-1-sulfonamide]
0.118 | CNS(=O)(=O)c1cccc(Nc2ncc3c(N)c(F)c(-c4cnc5c(c4C)NCCO5)cc3n2)c1 [Compound 2-34]
0.372 | COc1cc2c(cc1Nc1ncc3c(N)cc(-c4cnccc4C)cc3n1)CNCC2 [Compound 2-37, N^2-(6-methoxy-1,2,3,4-tetrahydroisoquinolin-7-yl)-7-(4-methylpyridin-3-yl)quinazoline-2,5-diamine]
35.1 | COc1cc2c(cc1Nc1ncc3c(N)cc(-c4c(C)cccc4F)cc3n1)CN(C)CC2 [Compound 2-38, 7-(2-fluoro-6-methylphenyl)-N^2-(6-methoxy-2-methyl-1,2,3,4-tetrahydroisoquinolin-7-yl)quinazoline-2,5-diamine]
0.942 | COc1cc2c(cc1Nc1ncc3c(N)cc(-c4cncc(N)c4C)cc3n1)CN(C)CC2 [Compound 2-39, 7-(5-amino-4-methylpyridin-3-yl)-N~2~- (6-methoxy-2-methyl-1,2,3,4-tetrahydroisoquinolin-7-yl)quinazoline-2,5-diamine]
0.633 | COc1cc2c(cc1Nc1ncc3c(N)cc(-c4cnc5c(c4C)NCCO5)cc3n1)CN(C)CC2 [Compound 2-40, N~2~-(6-methoxy-2-methyl-1,2,3,4-tetrahydroisoquinolin-7-yl)-7-(8-methyl-2,3-dihydro-1H-pyrido[2,3-b][1,4]oxazin-7-yl)quinazoline-2,5-diamine]
0.0761 | Cc1c(-c2cc3nc(Nc4ccc5c(c4)C(C)(C)OC5=O)ncc3c(N)c2F)cnc2c1NCCO2 [Compound 2-41, 5-{[5-amino-6-fluoro-7-(8-methyl-2,3-dihydro-1H-pyrido[2,3-b][1,4]oxazin-7-yl)quinazolin-2-yl]amino}-3,3-dimethyl-2-benzofuran-1(3H)-one]
0.153 | Cc1c(-c2cc3nc(Nc4ccc5c(c4)CN(CC(C)(C)O)C5=O)ncc3c(N)c2F)cnc2c1NCCO2 [Compound 2-42, 5-{[5-amino-6-fluoro-7-(8-methyl-2,3-dihydro-1H-pyrido[2,3-b][1,4]oxazin-7-yl)quinazolin-2-yl]amino}-2-(2-hydroxy-2-methylpropyl)-2,3-dihydro-1H-isoindol-1-one]
0.0849 | Cc1c(-c2cc3nc(Nc4ccc5c(c4)CCS5(=O)=O)ncc3c(N)c2F)cnc2c1NCCO2 [Compound 2-43, 5-{[5-amino-6-fluoro-7-(8-methyl-2,3-dihydro-1H-pyrido[2,3-b][1,4]oxazin-7-yl)quinazolin-2-yl]amino}-2,3-dihydro-1H-1-benzothiophene-1,1-dione]
0.194 | Cc1ccncc1-c1cc2nc(Nc3ccc(CS(C)(=O)=O)cc3)ncc2c(N)c1F [Compound 2-44, 6-fluoro-7-(4-methylpyridin-3-yl)-N~2~- {4-[(methylsulfonyl)methyl]phenyl}quinazoline-2,5-diamine]
0.163 | COc1cc2c(cc1Nc1ncc3c(N)c(F)c(-c4cnc5c(c4C)NCCO5)cc3n1)CN(C)CC21CC1 [Compound 2-45, 6-fluoro-N~2~-(6′-methoxy-2′-methyl-2′,3′-dihydro-1′H-spiro[cyclopropane-1,4′-isoquinolin]-7′-yl)-7-(8-methyl-2,3-dihydro-1H-pyrido[2,3-b][1,4]oxazin-7-yl)quinazoline-2,5-diamine]
24.6 | COc1cc2c(cc1Nc1ncc3c(N)c(F)c(-c4cnc5ncsc5c4)cc3n1)CN(C)CC2 [Compound 2-47, 6-fluoro-N~2~-(6-methoxy-2-methyl-1,2,3,4-tetrahydroisoquinolin-7-yl)-7-([1,3]thiazolo[4,5-b]pyridin-6-yl)quinazoline-2,5-diamine]
10.5 | COc1cc2c(cc1Nc1ncc3c(N)c(F)c(-c4cc5oc(=O)[nH]c5cc4C)cc3n1)CN(C)CC2 [Compound 2-49, 6-(5-amino-6-fluoro-2-((6-methoxy-2-methyl-1,2,3,4-tetrahydroisoquinolin-7-yl)amino)quinazolin-7-yl)-5-methylbenzo[d]oxazol-2(3H)-one]
0.0594 | COc1cc(CS(C)(=O)=O)ccc1Nc1ncc2c(N)c(F)c(-c3cnc4c(c3C)NCCO4)cc2n1 [Compound 2-50, 6-fluoro-N2-(2-methoxy-4-((methylsulfonyl)methyl)phenyl)-7-(8-methyl-2,3-dihydro-1H-pyrido[2,3-b][1,4]oxazin-7-yl)quinazoline-2,5-diamine]
474 | COc1cc2c(cc1Nc1ncc3c(N)c(F)c(-c4cc(C#N)ccc4C)cc3n1)CN(C)CC2 [Compound 2-51, 3-(5-amino-6-fluoro-2-((6-methoxy-2-methyl-1,2,3,4-tetrahydroisoquinolin-7-yl)amino)quinazolin-7-yl)-4-methylbenzonitrile]
424 | Cc1ccc(C#N)cc1-c1cc2nc(Nc3ccc(S(C)(=O)=O)cc3)ncc2c(N)c1F [Compound 2-52, 3-(5-amino-6-fluoro-2-{[4-(methylsulfonyl)phenyl]amino}quinazolin-7-yl)-4-methylbenzonitrile]
131 | Cc1ccc(C#N)cc1-c1cc2nc(Nc3ccc(CS(C)(=O)=O)cc3)ncc2c(N)c1F [Compound 2-53, 3-[5-amino-6-fluoro-2-({4-[(methylsulfonyl)methyl]phenyl}amino)quinazolin-7-yl]-4-methylbenzonitrile]
0.0791 | COC1CC(NC(=O)c2ccc(Nc3ncc4c(N)c(F)c(-c5cnc6c(c5C)NCCO6)cc4n3)cc2)C1 (centres unmarked) [Compound 2-58, 4-{[5-amino-6-fluoro-7-(8-methyl-2,3-dihydro-1H-pyrido[2,3-b][1,4]oxazin-7-yl)quinazolin-2-yl]amino}-N-(3-methoxycyclobutyl) benzamide]
0.0508 | Cc1c(-c2cc3nc(Nc4cc5c(cc4F)CCN(C)C5)ncc3c(N)c2F)cnc2c1NCCO2 [Compound 2-59, 6-fluoro-N~2~-(6-fluoro-2-methyl-1,2,3,4-tetrahydroisoquinolin-7-yl)-7-(8-methyl-2,3-dihydro-1H-pyrido[2,3-b][1,4]oxazin-7-yl)quinazoline-2,5-diamine]
469 | COc1cc2c(cc1Nc1ncc3c(N)c(F)c(-c4ccc(-c5ncco5)cc4C)cc3n1)CN(C)CC2 [Compound 2-60, 6-fluoro-N~2~-(6-methoxy-2-methyl-1,2,3,4-tetrahydroisoquinolin-7-yl)-7-[2-methyl-4-(1,3-oxazol-2-yl)phenyl]quinazoline-2,5-diamine]
1.27 | COc1cc2c(cc1Nc1ncc3c(N)c(F)c(-c4cnc(-c5ncco5)cc4C)cc3n1)CN(C)CC2 [Compound 2-61, 6-fluoro-N~2~-(6-methoxy-2-methyl-1,2,3,4-tetrahydroisoquinolin-7-yl)-7-[4-methyl-6-(1,3-oxazol-2-yl)pyridin-3-yl]quinazoline-2,5-diamine]
0.782 | Cc1c(-c2cc3nc(Nc4cc5c(cc4Cl)CCN(C)C5)ncc3c(N)c2F)cnc2c1NCCO2 [Compound 2-64, N~2~-(6-chloro-2-methyl-1,2,3,4-tetrahydroisoquinolin-7-yl)-6-fluoro-7-(8-methyl-2,3-dihydro-1H-pyrido[2,3-b][1,4]oxazin-7-yl)quinazoline-2,5-diamine]
16.6 | COc1cc2c(cc1Nc1ncc3c(N)c(F)c(-c4ccccc4-c4ccnn4C)cc3n1)CN(C)CC2 [Compound 2-65, 6-fluoro-N~2~-(6-methoxy-2-methyl-1,2,3,4-tetrahydroisoquinolin-7-yl)-7-[2-(1-methyl-1H-pyrazol-5-yl)phenyl]quinazoline-2,5-diamine]
0.722 | COc1nc(C)ccc1Nc1ncc2c(N)c(F)c(-c3cnc4c(c3C)NCCO4)cc2n1 [Compound 2-66, 6-fluoro-N~2~-(2-methoxy-6-methylpyridin-3-yl)-7-(8-methyl-2,3-dihydro-1H-pyrido[2,3-b][1,4]oxazin-7-yl)quinazoline-2,5-diamine]
0.0508 | Cc1c(-c2cc3nc(Nc4ccc(N5CCOC5=O)cc4)ncc3c(N)c2F)cnc2c1NCCO2 [Compound 2-67, 3-(4-{[5-amino-6-fluoro-7-(8-methyl-2,3-dihydro-1H-pyrido[2,3-b][1,4]oxazin-7-yl)quinazolin-2-yl]amino}phenyl)-1,3-oxazolidin-2-one]
14.3 | COc1nc(C2(C#N)CC2)ccc1Nc1ncc2c(N)c(F)c(-c3cnc4c(c3C)NCCO4)cc2n1 [Compound 2-68, 1-(5-{[5-amino-6-fluoro-7-(8-methyl-2,3-dihydro-1H-pyrido[2,3-b][1,4]oxazin-7-yl)quinazolin-2-yl]amino}-6-methoxypyridin-2-yl)cyclopropane-1-carbonitrile]
0.51 | COc1cc(F)ccc1Nc1ncc2c(N)c(F)c(-c3cnc4c(c3C)NCCO4)cc2n1 [Compound 2-69, 6-fluoro-N~2~-(4-fluoro-2-methoxyphenyl)-7-(8-methyl-2,3-dihydro-1H-pyrido[2,3-b][1,4]oxazin-7-yl)quinazoline-2,5-diamine]
0.0508 | Cc1c(-c2cc3nc(Nc4ccc5c(c4)CN(C)CC5)ncc3c(N)c2F)cnc2c1NCCO2 [Compound 2-70, 6-fluoro-7-(8-methyl-2,3-dihydro-1H-pyrido[2,3-b][1,4]oxazin-7-yl)-N˜2˜-(2-methyl-1,2,3,4-tetrahydroisoquinolin-7-yl)quinazoline-2,5-diamine]
